Experimental data reported in publication PMC4971072, “Chemically Homogenous Compounds with Antagonistic Properties at All α1-Adrenoceptor Subtypes but not β1-Adrenoceptor Attenuate Adrenaline-Induced Arrhythmia in Rats” (Frontiers in Pharmacology, 2016).
Where a name gives a salt, the structure may show the parent alone. Marks after values point to notes of the source that are not given here.

Key:
[1] = system: normal ECG in rats; assay: The effect on normal electrocardiogram in rats; type: in vivo, rat; details: anesthetized rats
Protocol: The experiment was carried out to exclude the influence of tested compounds on normal ECG. […] The influence on QRS complex, PQ interval, heart rate (RR), and QTc interval was determined.

[2] = system: adrenaline-induced arrhythmia in rats; assay: Therapeutic antiarrhythmic activity in adrenaline-induced arrhythmia; type: in vivo, rat; details: i.v. at ED84 at the peak of adrenaline-induced arrhythmia (20 μg/kg)
Protocol: The ECG was recorded constantly for 5 min as well as in the 10th and 15th min of the experiment.

[3] = target: T1, α1B-adrenoceptors (Mus musculus, UniProt P97717); assay: Functional bioassay, isolated mouse spleen, noradrenaline contraction; type: biochemical; details: noradrenaline as agonist
T1 construct: The spleen was removed from male mice; from tissue; host or cells: isolated mouse spleen
T1 sequence (P97717 1-514): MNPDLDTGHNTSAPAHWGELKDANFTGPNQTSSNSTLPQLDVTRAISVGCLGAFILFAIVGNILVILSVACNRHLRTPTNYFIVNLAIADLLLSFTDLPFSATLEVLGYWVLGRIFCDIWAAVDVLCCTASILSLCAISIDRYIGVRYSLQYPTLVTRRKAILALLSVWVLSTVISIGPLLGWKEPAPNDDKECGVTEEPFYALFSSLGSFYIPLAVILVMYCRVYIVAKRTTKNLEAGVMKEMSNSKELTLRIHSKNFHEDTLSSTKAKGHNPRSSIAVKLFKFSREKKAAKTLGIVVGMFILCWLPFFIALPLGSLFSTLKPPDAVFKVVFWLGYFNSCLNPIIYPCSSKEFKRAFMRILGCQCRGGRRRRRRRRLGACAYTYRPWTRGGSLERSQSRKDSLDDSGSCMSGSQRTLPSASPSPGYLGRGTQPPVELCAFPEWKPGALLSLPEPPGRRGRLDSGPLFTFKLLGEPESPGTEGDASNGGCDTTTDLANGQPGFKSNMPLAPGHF
Protocol: The influence on α1B-adrenoceptors was evaluated using the isolated mouse spleen. The spleen was removed from male mice right after killing the anesthetized animal by cervical dislocation. […] The initial optimal tissues tension was set at 1.0 g. Through the 100 min of equilibration tissues were stimulated with noradrenaline (0.1−10.0 μM) three times with washing out until the contractile response become constant. Two cumulative concentration-response curves to noradrenaline, at an interval of 60 min, were established on each tissue both in the presence and absence of antagonist. The incubation with antagonists went on for 30 min. The experiments were carried out in the constant presence of propranolol (1 μM) to block β-adrenoceptors, and minimize the involvement of these adrenoceptors in the response to noradrenaline.
Data are means ± S.E.M. of at least 4 separate experiments. To establish Hill slopes for the agonist concentration–response curves and calculate EC50 values, curves were fitted to all the data by non-linear regression. The EC50 value in the presence and absence of antagonists was used to ascertain the concentration ratio (CR). Schild analysis was performed.

[4] = system: blood pressure in normotensive rats; assay: Influence on blood pressure in normotensive rats; type: in vivo, rat; design: Systolic pressure / Diastolic pressure: unit not given beside the values; details: for Diastolic pressure / Systolic pressure: anesthetized normotensive rats
Protocol: The tested compounds were administered i.p. after 15 min of stabilization period. The compounds were administered at the dose 10 mg/kg.

[5] = target: α1-adrenoceptor; assay: α1-adrenoceptor radioligand binding assay ([3H]-prazosin, rat cerebral cortex); details: read-out: Adrenergic receptors Ki α1
Protocol: The α1- and β1-adrenoceptor radioligand binding assay was performed on rat cerebral cortex. […] The cell pellet was resuspended in the Tris–HCl buffer and centrifuged again. Radioligand binding assays were performed in plates (MultiScreen/Millipore). […] The incubation was terminated by rapid filtration through glass fiber filters (Whatman GF/C) using a vacuum manifold (Millipore). The filters were then washed twice with the assay buffer and placed in scintillation vials with a liquid scintillation cocktail. […] All the assays were made in duplicate and the inhibitory constants (Ki) were estimated.
LO–labeled ligand concentration, KD–dissociation constant of labeled ligand

[6] = i.p. at ED84, 0 min (initial values)
[7] = lowest hypotensive dose i.p., 5 min
[8] = lowest hypotensive dose i.p., 10 min
[9] = lowest hypotensive dose i.p., 20 min
[10] = lowest hypotensive dose i.p., 30 min
[11] = lowest hypotensive dose i.p., 40 min
[12] = lowest hypotensive dose i.p., 50 min
[13] = lowest hypotensive dose i.p., 60 min
[14] = lowest hypotensive dose i.p., Control (before administration)
[15] = normotensive rats, lowest hypotensive dose i.p., period of significant effect

Structure (SMILES): COc1ccccc1N1CCN(CCCOc2c(C)cc(C)cc2C)CC1 [HBK-18, 1N-[3-(2,4,6-trimethylphenoxy)propyl]-4N-(2-methoxyphenyl)piperazine hydrochloride]
- influence on ECG parameters (PQ interval, QRS complex, QTc interval) ([1]; i.p. at ED84): did not affect PQ interval, QRS complex or QTc interval
- reduction of heart rate ([1]; i.p. at ED84, over the period of significant effect vs. initial values): 13−23%
- Beats/min (ECG) [1, 6]: 328.0 ± 7.4 Beats/min
- PQ (ECG) [1, 6]: 61.3 ± 4.6 ms
- QRS (ECG) [1, 6]: 28.1 ± 3.1 ms
- QT (ECG) [1, 6]: 73.9 ± 6.2 ms
- QTc (ECG, Bazett) [1, 6]: 172.4 ± 13.5 ms
- Beats/min (ECG) ([1]; i.p. at ED84, 5 min): 306.9 ± 9.0 Beats/min
- PQ (ECG) ([1]; i.p. at ED84, 5 min): 61.5 ± 6.3 ms
- QRS (ECG) ([1]; i.p. at ED84, 5 min): 30.4 ± 3.2 ms
- QT (ECG) ([1]; i.p. at ED84, 5 min): 77.0 ± 7.0 ms
- QTc (ECG, Bazett) ([1]; i.p. at ED84, 5 min): 174.2 ± 16.3 ms
- Beats/min (ECG) ([1]; i.p. at ED84, 10 min): 298.7 ± 8.9 Beats/min
- PQ (ECG) ([1]; i.p. at ED84, 10 min): 57.4 ± 4.2 ms
- QRS (ECG) ([1]; i.p. at ED84, 10 min): 30.8 ± 3.6 ms
- QT (ECG) ([1]; i.p. at ED84, 10 min): 77.7 ± 4.9 ms
- QTc (ECG, Bazett) ([1]; i.p. at ED84, 10 min): 173.4 ± 11.7 ms
- Beats/min (ECG) ([1]; i.p. at ED84, 15 min): 284.7 ± 7.6^a Beats/min
- PQ (ECG) ([1]; i.p. at ED84, 15 min): 55.8 ± 1.6 ms
- QRS (ECG) ([1]; i.p. at ED84, 15 min): 27.0 ± 2.9 ms
- QT (ECG) ([1]; i.p. at ED84, 15 min): 76.1 ± 5.8 ms
- QTc (ECG, Bazett) ([1]; i.p. at ED84, 15 min): 166.4 ± 14.5 ms
- Beats/min (ECG) ([1]; i.p. at ED84, 20 min): 273.9 ± 8.0^b Beats/min
- PQ (ECG) ([1]; i.p. at ED84, 20 min): 51.9 ± 3.8 ms
- QRS (ECG) ([1]; i.p. at ED84, 20 min): 29.1 ± 2.7 ms
- QT (ECG) ([1]; i.p. at ED84, 20 min): 77.9 ± 4.2 ms
- QTc (ECG, Bazett) ([1]; i.p. at ED84, 20 min): 166.9 ± 11.1 ms
- Beats/min (ECG) ([1]; i.p. at ED84, 30 min): 267.4 ± 17.5^c Beats/min
- PQ (ECG) ([1]; i.p. at ED84, 30 min): 56.9 ± 3.5 ms
- QRS (ECG) ([1]; i.p. at ED84, 30 min): 28.5 ± 2.8 ms
- QT (ECG) ([1]; i.p. at ED84, 30 min): 75.3 ± 3.2 ms
- QTc (ECG, Bazett) ([1]; i.p. at ED84, 30 min): 159.0 ± 9.7 ms
- Beats/min (ECG) ([1]; i.p. at ED84, 40 min): 260.3 ± 22.8^c Beats/min
- PQ (ECG) ([1]; i.p. at ED84, 40 min): 57.4 ± 3.1 ms
- QRS (ECG) ([1]; i.p. at ED84, 40 min): 28.6 ± 2.8 ms
- QT (ECG) ([1]; i.p. at ED84, 40 min): 76.9 ± 4.9 ms
- QTc (ECG, Bazett) ([1]; i.p. at ED84, 40 min): 160.4 ± 14.4 ms
- Beats/min (ECG) ([1]; i.p. at ED84, 50 min): 258.9 ± 25.4^c Beats/min
- PQ (ECG) ([1]; i.p. at ED84, 50 min): 59.0 ± 3.8 ms
- QRS (ECG) ([1]; i.p. at ED84, 50 min): 27.6 ± 3.0 ms
- QT (ECG) ([1]; i.p. at ED84, 50 min): 76.0 ± 2.9 ms
- QTc (ECG, Bazett) ([1]; i.p. at ED84, 50 min): 157.2 ± 9.9 ms
- Beats/min (ECG) ([1]; i.p. at ED84, 60 min): 252.3 ± 25.1^c Beats/min
- PQ (ECG) ([1]; i.p. at ED84, 60 min): 59.6 ± 4.7 ms
- QRS (ECG) ([1]; i.p. at ED84, 60 min): 30.9 ± 3.8 ms
- QT (ECG) ([1]; i.p. at ED84, 60 min): 76.7 ± 3.5 ms
- QTc (ECG, Bazett) ([1]; i.p. at ED84, 60 min): 157.1 ± 12.0 ms
- therapeutic antiarrhythmic activity (premature ventricular contractions) [2]: restored normal heart rhythm
- Schild slope ± S.E.M., α1B [3]: 1.03 ± 0.18
- Kb ([3]; read-out: pA2 ± S.E.M., α1B (converted)): 4.47 nM
- Diastolic pressure [4, 7]: 90.7 ± 7.1
- Systolic pressure [4, 7]: 117.7 ± 9.1
- Diastolic pressure [4, 8]: 85.5 ± 7.5
- Systolic pressure [4, 8]: 112.7 ± 7.7
- Diastolic pressure [4, 9]: 79.5 ± 7.8^a
- Systolic pressure [4, 9]: 96.5 ± 8.9^b
- Diastolic pressure [4, 10]: 78.3 ± 7.2^a
- Systolic pressure [4, 10]: 93.8 ± 8.7^c
- Diastolic pressure [4, 11]: 78.8 ± 7.0^b
- Systolic pressure [4, 11]: 91.8 ± 10.0^b
- Diastolic pressure [4, 12]: 78.7 ± 5.6^c
- Systolic pressure [4, 12]: 90.7 ± 8.6^b
- Diastolic pressure [4, 13]: 77.5 ± 6.0^b
- Systolic pressure [4, 13]: 90.2 ± 9.2^a
- Diastolic pressure [4, 14]: 94.3 ± 6.4
- Systolic pressure [4, 14]: 125.7 ± 8.2
- lowest hypotensive dose ([4]; normotensive rats, lowest dose significantly lowering systolic and diastolic blood pressure): 0.01 mg/kg
- reduction of diastolic blood pressure [4, 15]: 16−18%
- reduction of systolic blood pressure [4, 15]: 23−28%
- Ki [5]: 5.2 nM
